For data set [1], the system named is mice subjected to chronic restraint stress (CRS). The data set can be described thus: Y-maze alternation task, chronic restraint stress (CRS) mice. It counts as in vivo, mouse. Conditions: for effect on CRS-induced working memory deficit (percent alternation rate, Y-maze): 10 mg/kg i.p. 30 min before testing; for Alternation rate (%): Dose 10 mg/kg. How it is done:
C57/B16 mice, males and females were ordered from Jackson Laboratories at 8 weeks old and were kept in normal housing conditions (12 h light ON cycle starting at 7 am/water and food ad libitum) for one week. During this week, animals were single housed and handled to reduce the anxiety-like response toward the experimenter. To induce a working memory deficit, mice were subjected to a chronic restraint stress protocol (CRS). They were placed in a 50 ml Falcon® tube, twice a day, for 1 hour during their diurnal cycle. The time of occurrence of the stress was randomized every day to avoid predictability. CRS was not applied on testing days. Y-maze test occurred 15 hours minimum after the last stressor.
Mice were first habituated to the Y-maze apparatus and distal cues during 2 consecutive days over a 10 min free exploration session (one session per day). The next day, animals performed a training session consisting in seven successive trials separated by a 30 s inter-trial interval (ITI); during this training session, mice were familiarized with the experimental procedure (opening and closing of the doors and confinement into the goal arms). For each trial, mice remained in the start-box for a 30 s ITI. Then, the door was opened and the mouse was allowed to enter freely one of the two goal arms; the chosen arm was closed and the choice was recorded. After a 30 s confinement period into the chosen arm, the mouse was removed and brought back to the start-box for a second trial identical to the first one and this procedure was repeated over the series of trials.
The same general procedure used in the training session was implemented 24 h later, except that the ITI was lengthened to 90 s. For this experiment, animals were acutely injected i.p. with vehicle or αPAM, 30 minutes before the beginning of the test. To dissociate memory deficits from an eventual progressive loss of motivation to alternate over the series, an 8th trial was added to the series which was separated from the 7th trial by a shorter ITI (5 s). All animals failing to alternate at the 8th trial were excluded. The mean alternation rate was calculated and was expressed in percentage (number of alternation done by the animal/total number of alternation possible×100)±SEM. The percentage of alternation during the entire task is considered as an index of working memory performance (50% of being a random alternation rate). Factorial ANOVA was applied to the data to reveal differences between groups. If the ANOVA was significant for group effect (p<0.05), Scheffe post-hoc analysis were conducted to identify which groups are different from each other.
All drugs were diluted in a vehicle solution containing 85% H2O, 14% propylene glycol (Sigma Aldrich) and 1% Tween 80 (Sigma Aldrich). Working solutions were prepared at a concentration of 10 mg/mL and administered i.p. adjusted to the body weight of each animal. Doses used were either 1, 5, 10 or 20 mg/kg. For all Y maze experiments, animals were acutely injected i.p. with vehicle or αPAM, 30 minutes before the beginning of the test.

Data set [2] can be described thus: Mouse liver microsome stability assay. It counts as in vitro ADME. Conditions: 10 μM compound; for half-life at 10 μM: mouse, liver microsomes, read-out: Half-life (min) (MouseLM). On the procedure: (§1) Human and mouse liver microsomes were obtained fom BD Gentest.
(§2) Each evaluation included six independent assays carried out three at a time, on two different days
(§3) 2. For a total volume of Microsomal Assay Mixture (MAM) 390 μL, sufficient for seven time points, combine the following
(§4) 3. Sonicate MAM for 5 min and meanwhile thaw microsomes (20 mg/mL) (BD Gentest, Cat #452156) on ice.
(§5) 4. Aliquot 100 μL of ice cold ISTD into 7 separate 1.5 mL conical vials and label them the time points for 0, 10, 20, 40, 60, 90, and 120 min.
(§6) 5. Arrange the timer. Microsomes (Final concentration of 0.5 mg/mL) should be added to all time points except the zero time point.
(§7) 6. Add 50 μL of the MAM solution to the conical vial labelled as zero time point. Place the remaining MAM solution in the incubator (37° C.) for 5 min and initiate the reaction with addition of microsomes (8.8 μL) and record the time.
(§8) 7. At the end of each time interval remove 50 μL and add 100 μL to ISTD in conical vial, sonicate for 10 sec and spin down at 10,000 rpm for 5 minutes.
(§9) 8. Take 100 μL of supernatant and transfer to Spin-X HPLC filter tubes (Corning Incorporated, Cat #8169) and centrifuge at 13,000 rpm for 5 minutes and take 5 μL from this solution and dilute in 495 μL of LCMS grade methanol (Fischer scientific, CAS #67-56-1) in an 2 mL glass auto sampler vial (Microsolv, Cat #95025-WCV) 9. The samples are analyzed by LCMS-8040. (Shimadzu)
(§10) Calculation: From the peak area, calculate the following
(§11) The compounds are tested for the metabolic stability in the Human and Mouse Liver microsomes at 10 μM concentration.
A general note: Liver microsomes are a subcellular fraction often used to study metabolism.

Data set [3] in a line: Human liver microsome stability assay. The format is in vitro ADME. Conditions: 10 μM compound; for half-life at 10 μM: human, liver microsomes, read-out: Half-life (min) (HumanLM). On the procedure: as §1, §2, §3, §4, §5, §6, §7, §8, §9, §10, §11
Data set [4] can be described thus: Pharmacokinetics in mice (plasma, liver, brain). Conditions: i.p. dosing at 3 mg/kg.
Data set [5] concerns Female Swiss Webster mice. The data set is described as follows: Rotarod sensorimotor / locomotor coordination. It counts as in vivo, mouse. Conditions: 40 mg/kg oral gavage; 15 rpm, 3 min; 10, 30, 60 min after dosing. How it is done:
Female Swiss Webster mice (10 weeks of age) from Charles River Laboratory, WIL, MA were used for the experiments. The animals were housed under specific pathogen-free conditions, under standard conditions of humidity, temperature and a controlled 12 h light and dark cycle and had free access to food and water. The sensorimotor rotarod test was carried out 10, 30 and 60 minutes after the injection. Mice were tested on a rotarod at 15 rpm for maximum 3 min and the time of fall was recorded. Falling before the 3 minutes period of testing assesses of locomotor coordination impairment induced by the compound.
Mice (N=10/group) received a single administration via oral gavage of test compound (40 mg/kg), diazepam (5 mg/kg), or vehicle (2% polyethylene glycol, 2.5% hydroxypropylmethyl cellulose solution).
Background: The rotarod test checks motor coordination on a turning rod.

Another data set concerns HEPG2. The data set is described as follows: Cytotoxicity assay (CellTiter-Glo), HEPG2. Conditions: 48 hours incubation. The format is cell-based, human. How it is done: (§12) Human liver hepatocellular carcinoma (HEPG2) and human embryonic kidney 293 (HEK293) cell lines were purchased (ATCC) and cultured in 75 cm2 flasks (CellStar). Cells were grown in DMEM/High Glucose (Hyclone, #SH3024301) media to which non-essential amino acids (Hyclone, #SH30238.01), 10 mM HEPES (Hyclone, #SH302237.01), 5×106 units of penicillin and streptomycin (Hyclone, #SV30010), and 10% of heat inactivated fetal bovine serum (Gibco, #10082147) were added. Cells were harvested using 0.05% Trypsin (Hyclone, #SH3023601), washed with PBS, and dispensed into sterile white, optical bottom 384-well plates (NUNC, #142762). After three hours, small molecule solutions were transferred with a Tecan Freedom EVO liquid handling system equipped with a 100 nL pin tool (V&P Scientific). The controls (E)-10-(bromotriphenylphosphoranyl)decyl 4-(4-(tert-butyl)phenyl)-4-oxobut-2-enoate (400 μM in DMSO, positive control) and DMSO (negative control). The cells were incubated for 48 hours followed by the addition of CellTiter-Glo™, a luminescence-based cell viability assay (Promega, Madison, Wis.). All luminescence readings were performed on a Tecan Infinite M1000 plate reader. The assay was carried out in quadruplet with three independent runs. The data was normalized to the controls and analyzed by nonlinear regression (GraphPad Prism).
On the technique in general: ATP-based viability assays read luminescence as a measure of living cells.

The test system of another data set is HEK293. The data set can be described thus: Cytotoxicity assay (CellTiter-Glo), HEK293. The format is cell-based, human. Conditions: 48 hours incubation. How it is done:
as §12

Entries after “also recorded” stand apart in the source; their conditions may differ.

What is called half-life is the time needed for the level to fall by half in the phase considered.

With `C#Cc1ccc2c(c1)C(c1ccccc1F)=N[C@@H](C)c1c(-c3nc(C)no3)ncn1-2` [GL-I-65, (S)-5-(8-ethynyl-6-(2-fluorophenyl)-4-methyl-4H-benzo[f]imidazo[1,5-a][1,4]diazepin-3-yl)-3-methyl-1,2,4-oxadiazole], the “effect on CRS-induced working memory deficit (percent alternation rate, Y-maze)” value in data set [1] is recorded as “significant reversal of CRS-induced impairment in working memory; also recorded: increase in alternation rate”. Besides, in data set [2], the “Half-life (min) (MouseLM)” value amounted to 443 ± 67 min and the “% left after 2 hr. (MouseLM)” value turned out to be 81.0 ± 0.4%. In addition, in data set [3], the “Half-life (min) (HumanLM)” value amounted to 866 ± 213 min and the “% left after 2 hr. (Human LM)” value worked out at 86.4 ± 0.3%. For the same compound, the “molar concentration range reached in mouse brain tissue” value (shortened to “molar concentration range reached”) in data set [4] is recorded as “moderate to high submicromolar concentrations”. Further, the “sensorimotor impairment on rotarod (time of fall)” value (“sensorimotor impairment on rotarod” below) in data set [5] is recorded as “no sensorimotor impairment”.
Regarding `C#Cc1ccc2c(c1)C(c1ccccn1)=N[C@H](C)c1c(C(=O)NC)ncn1-2` [GL-II-31, (R)-8-ethynyl-N,4-dimethyl-6-(pyridin-2-yl)-4H-benzo[f]imidazo[1,5-a][1,4]diazepine-3-carboxamide], in data set [1], the “Alternation rate (%)” value was 56.6%. The “HEPG2 LD50” value in the data set on HEPG2 is more than 400 µM. Also, the half-life at 10 μM in data set [2] came to 1840 ± 590 min; in data set [3] it was 1870 ± 765 min. Besides, the “molar concentration range reached” value in data set [4] was “moderate to high submicromolar concentrations”. In the data set with HEK293, the “HEK293 LD50” value is more than 400 µM. Further, the “sensorimotor impairment on rotarod” value in data set [5] was “no sensorimotor impairment”.
For the compound `C#Cc1ccc2c(c1)C(c1ccccn1)=N[C@H](C)c1c(-c3nc(C)no3)ncn1-2` [GL-II-33, (R)-5-(8-ethynyl-4-methyl-6-(pyridin-2-yl)-4H-benzo[f]imidazo[1,5-a][1,4]diazepin-3-yl)-3-methyl-1,2,4-oxadiazole], the “effect on CRS-induced working memory deficit (percent alternation rate, Y-maze)” value in data set [1] is reported as “a trend in the reversal of CRS-induced impairment in working memory; also recorded: a trend was detected”. Also, the “HEPG2 LD50” value with HEPG2 is more than 400 µM. In addition, in data set [2], the “% left after 2 hr. (MouseLM)” value is listed as 82.0 ± 0.3% and the half-life at 10 μM is 500 ± 66 min. In addition, the half-life at 10 μM in data set [3] worked out at 2590 ± 1110 min. Besides, in data set [4], the “molar concentration range reached” value is given as “moderate to high submicromolar concentrations”. Besides, in the data set with HEK293, the “HEK293 LD50” value was more than 400 µM. Also, the “sensorimotor impairment on rotarod” value in data set [5] was “no sensorimotor impairment”.
For `C#Cc1ccc2c(c1)C(c1ccccc1F)=NCc1c(-c3nc(C)no3)ncn1-2` [GL-III-23, 5-(8-ethynyl-6-(2-fluorophenyl)-4H-benzo[f]imidazo[1,5-a][1,4]diazepin-3-yl)-3-methyl-1,2,4-oxadiazole], the “Alternation rate (%)” value in data set [1] came out at 56.6%. In addition, the “HEPG2 LD50” value with HEPG2 is more than 100 µM. Moreover, the half-life at 10 μM was determined as 1320 ± 316 min in data set [2] and 504 ± 77 min in data set [3]. The “% left after 2 hr. (Human LM)” value in data set [3] came out at 82.0 ± 0.3%. Also, in data set [4], the “molar concentration range reached” value is “micromolar concentrations”. In the data set on HEK293, the “HEK293 LD50” value is more than 100 µM.

These data come from patent US10906909B2, “Treatment of cognitive and mood symptoms in neurodegenerative and neuropsychiatric disorders with ALPHA5-containing GABAA receptor agonists” (UWM Research Foundation, Inc., priority 2016, dated 2021).
